Results on eight compounds are retold here after patent US10167297B2, “Substituted pyridine compounds having herbicidal activity” (BASF SE, priority 2014, dated 2019).

What all share (format): in vivo
One assay has as its system Setaria viridis. Nature of the assay: greenhouse post-emergence herbicidal activity (use examples). Conditions: SETVI, scale 0 to 100. The text has this: (§1) The seeds of the test plants were sown separately for each species. For the pre-emergence treatment, the active ingredients, which had been suspended or emulsified in water, were applied directly after sowing by means of finely distributing nozzles. The containers were irrigated gently to promote germination and growth and subsequently covered with transparent plastic hoods until the plants had rooted. This cover caused uniform germination of the test plants, unless this had been impaired by the active ingredients. For the post-emergence treatment, the test plants were first grown to a height of 3 to 15 cm, depending on the plant habit, and only then treated with the active ingredients which had been suspended or emulsified in water. For this purpose, the test plants were either sown directly and grown in the same containers, or they were first grown separately as seedlings and transplanted into the test containers a few days prior to treatment. Depending on the species, the plants were kept at 10-25° C. or 20-35° C., respectively. The test period extended over 2 to 4 weeks. During this time, the plants were tended, and their response to the individual treatments was evaluated. Evaluation was carried out using a scale from 0 to 100. 100 means no emergence of the plants, or complete destruction of at least the aerial moieties, and 0 means no damage, or normal course of growth. A good herbicidal activity is given at values of at least 70 and a very good herbicidal activity is given at values of at least 85. The plants used in the greenhouse experiments were of the following species: [table]

A further assay deals with Echinocloa crus-galli. Described as above. Conditions: Echinochloa crus-galli, ECHCG, scale 0 to 100; for pest or weed control at 250 g/ha: 0.25 kg/ha; for pest or weed control at 125 g/ha: 0.125 kg/ha; for pest or weed control at 31 g/ha: 0.031 kg/ha.
From the text: as §1

The subject of another assay is Zea mays. The assay can be described thus: greenhouse post-emergence herbicidal activity on crop plant corn (use examples). Conditions: ZEAMX (corn, crop plant), scale 0 to 100; for plant injury at 250 g/ha: 0.25 kg/ha; for plant injury at 125 g/ha: 0.125 kg/ha; for plant injury at 31 g/ha: 0.031 kg/ha.
From the text: as §1

The test system of a further assay is Amaranthus retroflexus. Nature of the assay: greenhouse post-emergence herbicidal activity (use examples). The conditions noted are these: AMARE, scale 0 to 100.
From the text: as §1

The next assay has as its system Chenopodium album. The description is as above. The conditions noted are these: CHEAL, scale 0 to 100.
From the text: as §1

Molecules are shown by their SMILES.

What is called pest or weed control is the degree to which the test organism was suppressed or injured, in per cent. As usually defined, the plant injury is how far the test organism was held down. Lower therefore signals weak suppression. On to `CC(=O)N(C)c1c(Cl)ccc(C2=C(O)c3ncccc3C(C)(C)S2(=O)=O)c1Cl` [Compound I-6, N-[2,6-dichloro-3-(8-hydroxy-5,5-dimethyl-6,6-dioxo-thiopyrano[4,3-b]pyridin-7-yl)phenyl]-N-methyl-acetamide], for which, in the assay with Setaria viridis (0.060 kg/ha), the Herbicidal activity was 90. The same compound gave a pest or weed control at 60 g/ha in the assay with Echinocloa crus-galli (0.060 kg/ha) of 90%. For the same compound, the plant injury at 60 g/ha in the assay on Zea mays (0.060 kg/ha) came to 30%.

Turning to `O=C1CCCN1c1c(Cl)ccc(C2=C(O)c3ncccc3CS2(=O)=O)c1Cl` [Compound I-1, 1-[2,6-dichloro-3-(8-hydroxy-6,6-dioxo-5H-thiopyrano[4,3-b]pyridin-7-yl)phenyl]pyrrolidin-2-one], the pest or weed control at 250 g/ha in the assay with Echinocloa crus-galli amounted to 100%. Moreover, the Herbicidal activity with Amaranthus retroflexus (0.25 kg/ha) and in the assay on Chenopodium album (0.25 kg/ha) was 100 each time. This compound gave a plant injury at 250 g/ha in the assay with Zea mays of 0%.

Take `CC(=O)N(C)c1c(Cl)ccc(C2=C(O)c3ncc(F)cc3C(C)(C)S2(=O)=O)c1Cl` [Compound I-14, N-[2,6-dichloro-3-(3-fluoro-8-hydroxy-5,5-dimethyl-6,6-dioxo-thiopyrano[4,3-b]pyridin-7-yl)phenyl]-N-methyl-acetamide]: the Herbicidal activity with Setaria viridis (0.125 kg/ha) turned out to be 100; with Amaranthus retroflexus (0.125 kg/ha), 98. The pest or weed control at 125 g/ha in the assay with Echinocloa crus-galli is 98%. Further, the plant injury at 125 g/ha in the assay with Zea mays came out at 30%.

For the compound `CC(=O)N(C)c1c(Cl)ccc(C2=C(O)c3ncc(F)cc3CS2(=O)=O)c1Cl` [Compound I-11, N-[2,6-dichloro-3-(3-fluoro-8-hydroxy-6,6-dioxo-5H-thiopyrano[4,3-b]pyridin-7-yl)phenyl]-N-methyl-acetamide], the Herbicidal activity in the assay with Setaria viridis (0.031 kg/ha) and in the assay with Chenopodium album (0.031 kg/ha) was 90 each time. In addition, in the assay on Echinocloa crus-galli, the pest or weed control at 31 g/ha is 90%. In the assay on Zea mays, this compound came in with a plant injury at 31 g/ha of 15%.

Consider `CC(=O)N(C)c1c(Cl)ccc(C2=C(OC(=O)C(C)(C)C)c3ncc(F)cc3CS2(=O)=O)c1Cl` [Compound I-12, [7-[3-[acetyl(methyl)amino]-2,4-dichloro-phenyl]-3-fluoro-6,6-dioxo-5H-thiopyrano[4,3-b]pyridin-8-yl] 2,2-dimethylpropanoate], for which the Herbicidal activity is 75 with Setaria viridis (0.031 kg/ha) and 90 in the assay with Chenopodium album (0.031 kg/ha). The pest or weed control at 31 g/ha in the assay on Echinocloa crus-galli worked out at 85%. Moreover, in the assay with Zea mays, the plant injury at 31 g/ha came to 15%.

The compound `CC(=O)N(C)c1c(Cl)ccc(C2=C(OC(=O)C(C)(C)C)c3ncccc3C(C)(C)S2(=O)=O)c1Cl` [Compound I-8, [7-[3-[acetyl(methyl)amino]-2,4-dichloro-phenyl]-5,5-dimethyl-6,6-dioxo-thiopyrano[4,3-b]pyridin-8-yl] 2,2-dimethylpropanoate] came in with a pest or weed control at 125 g/ha with Echinocloa crus-galli of 98%. Moreover, the values for the Herbicidal activity in the assay with Amaranthus retroflexus (0.125 kg/ha) and in the assay with Chenopodium album (0.125 kg/ha) were 98 and 100, respectively. In addition, in the assay on Zea mays, the plant injury at 125 g/ha amounted to 30%.

In turn, `CC(=O)N(C)c1c(Cl)ccc(C2=C(OC(=O)C(C)(C)C)c3ncccc3CS2(=O)=O)c1Cl` [Compound I-7, [7-[3-[acetyl(methyl)amino]-2,4-dichloro-phenyl]-6,6-dioxo-5H-thiopyrano[4,3-b]pyridin-8-yl] 2,2-dimethylpropanoate] returned a pest or weed control at 250 g/ha with Echinocloa crus-galli of 98%. The values for the Herbicidal activity in the assay on Amaranthus retroflexus (0.25 kg/ha) and in the assay on Chenopodium album (0.25 kg/ha) were 95 and 100, respectively. In the assay on Zea mays, this compound returned a plant injury at 250 g/ha of 20%.

Turning to `CC(=O)N(C)c1c(Cl)ccc(C2=C(OC(=O)C(C)(C)C)c3ncc(F)cc3C(C)(C)S2(=O)=O)c1Cl` [Compound I-13, [7-[3-[acetyl(methyl)amino]-2,4-dichloro-phenyl]-3-fluoro-5,5-dimethyl-6,6-dioxo-thiopyrano[4,3-b]pyridin-8-yl] 2,2-dimethylpropanoate], the Herbicidal activity with Setaria viridis (0.125 kg/ha) is recorded as 85; in the assay with Amaranthus retroflexus (0.125 kg/ha) it was 90. This compound showed a pest or weed control at 125 g/ha in the assay with Echinocloa crus-galli of 95%. Also, in the assay on Zea mays, the plant injury at 125 g/ha came to 15%.
